Values joined by “and” are separate entries in the source; they are usually repeats but may differ in a detail not shown here. Identical values can stand only once. “Also recorded” adds a separate entry of the source. Like-named read-outs stand apart in the source and are kept apart here.
How the values were obtained:
[1] = SP16 pharmacokinetic profile after intravenous injection (LC/MS/MS of plasma); format: in vivo, rats
Method: The following table provides the results from an assay for SP16's pharmacokinetic profile. In performing the assay, three normal rats were injected intravenously with 5 mg/kg SP16 and the plasma concentration of SP16 established at 8 time points following the injection. […] The assay was executed by Apredica, Boston, Mass.

hERG = molecular target: T1, hERG (Homo sapiens, UniProt Q12809); assay: cell-based; format: cell-based
T1 construct: Apredica, Boston, Mass; (contract laboratory that ran the study)
T1 sequence (Q12809 whole entry): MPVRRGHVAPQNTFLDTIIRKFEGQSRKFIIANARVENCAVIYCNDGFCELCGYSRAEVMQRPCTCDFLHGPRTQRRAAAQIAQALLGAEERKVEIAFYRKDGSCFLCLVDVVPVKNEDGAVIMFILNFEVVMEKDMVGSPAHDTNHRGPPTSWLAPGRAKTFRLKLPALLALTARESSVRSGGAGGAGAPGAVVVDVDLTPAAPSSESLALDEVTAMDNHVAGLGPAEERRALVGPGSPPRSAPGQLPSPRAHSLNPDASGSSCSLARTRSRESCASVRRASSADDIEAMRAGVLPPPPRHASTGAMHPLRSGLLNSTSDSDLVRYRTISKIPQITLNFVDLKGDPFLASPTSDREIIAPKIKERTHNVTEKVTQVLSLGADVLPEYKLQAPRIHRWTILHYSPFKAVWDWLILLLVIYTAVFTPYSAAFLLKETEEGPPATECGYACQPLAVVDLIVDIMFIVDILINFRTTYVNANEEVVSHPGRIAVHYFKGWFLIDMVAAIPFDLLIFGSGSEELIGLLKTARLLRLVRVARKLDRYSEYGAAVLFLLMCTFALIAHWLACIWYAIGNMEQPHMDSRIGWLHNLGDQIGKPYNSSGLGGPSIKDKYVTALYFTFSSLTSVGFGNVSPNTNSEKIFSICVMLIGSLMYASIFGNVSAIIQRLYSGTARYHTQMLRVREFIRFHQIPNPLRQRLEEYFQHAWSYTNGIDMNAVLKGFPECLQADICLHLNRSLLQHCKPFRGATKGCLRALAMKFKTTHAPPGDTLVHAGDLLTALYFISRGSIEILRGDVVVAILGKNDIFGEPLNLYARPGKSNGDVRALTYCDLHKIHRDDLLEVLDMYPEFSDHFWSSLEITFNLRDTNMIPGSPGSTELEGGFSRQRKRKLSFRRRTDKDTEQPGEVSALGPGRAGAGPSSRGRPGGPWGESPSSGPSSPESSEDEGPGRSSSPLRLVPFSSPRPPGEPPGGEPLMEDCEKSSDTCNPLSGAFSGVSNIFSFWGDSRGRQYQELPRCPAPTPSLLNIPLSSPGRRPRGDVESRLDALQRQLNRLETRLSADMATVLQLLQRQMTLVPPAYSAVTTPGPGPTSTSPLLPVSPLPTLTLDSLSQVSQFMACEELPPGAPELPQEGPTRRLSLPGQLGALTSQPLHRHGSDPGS

111 human receptors = assay: human receptor panning, GenSEP Explorer panel of 111 in vitro assay targets; conditions: 111 targets
Source text: In addition, we also performed a profile using human receptor panning. The GenSEP Explorer panel contains 111 in vitro assay targets carefully selected to assess drug/chemical biological activities. Assay categories include GPCRs, Voltage-Gated Ion Channels, Ligand-Gated Ion Channels, Neurotransmitter transporters, Nuclear Receptors and Steroids as well as a diverse set of biochemical targets including phosphodiesterases, kinases and other relevant enzymes.

healthy mouse = assay: cardiac contractility in the healthy mouse (echocardiography, isoproterenol challenge); format: in vivo; conditions: FIG. 7
Method: To test the effect of SP163M on heart contractility the following study was conducted. […] SP34 is a peptide with a scrambled sequence of SP16 and is used as a control peptide.
Ten-weeks-old ICR mice were treated with SP163M (100 μg/mouse i.p.), the control peptide SP34 (100 μg/mouse) or the vehicle solution. Echocardiography was used to assess left ventricular (LV) fractional shortening at baseline and after 180 minutes.
Cardiac contractility reserve was tested with isoproterenol challenge (10 ng/kg i.p.), measuring the increase in LV fractional shortening within 5′ of treatment. Each group included at least 6 mice.

recombinant LRP1 protein = molecular target: T2, recombinant LRP1 protein (Homo sapiens, UniProt Q07954); assay: in vitro binding of biotin-peptide to recombinant LRP1 (streptavidin bead pull-down, western blot)
T2 construct: purchased R&D Systems, Minneapolis, Minn
T2 sequence (Q07954 with tags, fused parts or gaps limits assumed, species assumed): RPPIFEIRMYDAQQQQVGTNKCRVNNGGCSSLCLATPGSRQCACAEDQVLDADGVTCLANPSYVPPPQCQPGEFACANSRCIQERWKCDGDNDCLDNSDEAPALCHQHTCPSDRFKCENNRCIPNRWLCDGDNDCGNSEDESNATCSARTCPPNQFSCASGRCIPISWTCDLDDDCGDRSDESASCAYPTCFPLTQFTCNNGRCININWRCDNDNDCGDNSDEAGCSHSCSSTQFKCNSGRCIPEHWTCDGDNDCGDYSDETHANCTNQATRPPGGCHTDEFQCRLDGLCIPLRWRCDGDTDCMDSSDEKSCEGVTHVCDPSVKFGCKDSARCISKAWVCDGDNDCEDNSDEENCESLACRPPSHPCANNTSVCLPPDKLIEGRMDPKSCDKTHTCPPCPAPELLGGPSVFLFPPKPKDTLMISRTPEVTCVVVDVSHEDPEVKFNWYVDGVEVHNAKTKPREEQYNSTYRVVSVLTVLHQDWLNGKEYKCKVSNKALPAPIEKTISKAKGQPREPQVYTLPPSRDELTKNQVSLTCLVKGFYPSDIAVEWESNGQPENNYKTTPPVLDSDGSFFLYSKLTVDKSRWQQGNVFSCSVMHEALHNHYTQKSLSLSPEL
Method: An in vitro assay was performed to examine SP163M binding to LRP1. To perform the assay, recombinant LRP1 protein (1 μg/ml) (R&D Systems, Minneapolis, Minn.) was incubated on ice in the presence of biotin-SP163M (1-5 μg/ml) at 4° C. for 1 hour. This mixture was then incubated with 1 mg/ml M280 Streptavidin Dynabeads (Invitrogen, Carlsbad, Calif.) for 1.5 hours at 4° C. Dynabeads were washed in PBS+0.1% Tween20 and boiled in SDS loading buffer for 5 minutes. The supernatants were separated on NuPAGE 4-12% Bis-Tris gels (Invitrogen) and transferred to nitrocellulose membranes. The membranes were probed with anti-LRP1 (LRP-1 Cluster II Affinity Purified Polyclonal Ab, R&D, Minneapolis, Minn.) and incubated overnight at 4° C. The membranes were then washed 3 times with TBS-T and incubated with secondary HRP-coupled anti-goat diluted 1:10,000 in 5% milk TBS-T. The western blots were visualized by chemiluminescence using SuperSignal West Femto Maximum Sensitivity Substrate kit (ThermoScientific) and a Bio Rad Molecular Imager ChemiDoc XRS system (Bio-Rad, Hercules, Calif.).

LRP1 = molecular target: T3, LRP1 (Mus musculus, UniProt Q91ZX7); assay: experimental AMI in mice pretreated with LRP1 blocking antibody; format: in vivo; conditions: LRP1 antibody clone 5A6 3 mg/kg 16 hours before surgery; SP163M 100 μg or AAT 60 mg/kg i.p. after reperfusion, FIG. 14
T3 construct: from tissue; host or cells: living CD1 mice (heart, in vivo)
Method: To examine the whether LRP1 mediates the cardioprotective effect of SP163M, groups of mice were treated with an LRP1 blocking antibody prior to experimental AMI. The resulting infarct size and LV systolic function were measured
Adult out-bred male CD1 mice (10 weeks of age) supplied by Harlan Sprague Dawley (Indianapolis, Ind.) were used in this study. A single operator (S.T.) skilled in coronary artery surgical ligation in mice performed all surgeries. Experimental AMI was induced by transient coronary artery ligation of the left anterior descending coronary artery for 30 minutes to induce ischemia of the anterior wall and the apex (visible as pallor) followed by reperfusion, and leading to an infarct involving approximately 15% of the left ventricle. […]
Infarct size (reported in FIG. 14A) was measured as previously described. […] The infarcted tissue (appearing white) and the viable tissue (bright red) were measured by computer morphometry using Image Pro Plus 6.0 software (Media Cybernetics, Silver Spring, Md.). […]
LV systolic function (reported in FIG. 14B) was determined as well. […] We measured the left ventricular (LV) end-diastolic and end-systolic areas at B-Mode and the LV end-diastolic diameter (LVEDD), LV end-systolic diameters (LVESD) at M-Mode. LV fractional shortening (FS) and LV ejection fraction (EF) were calculated. […]

[2] = test system: experimental acute myocardial infarction (AMI) in the mouse; conditions: AAT at onset of ischemia or at time of reperfusion, cited from earlier work
[3] = test system: inflammatory reaction that occurs after AMI; conditions: pilot clinical study; cited from earlier work
TNF-alpha = assay: LPS challenged mouse model of sepsis, TNF-alpha levels; format: in vivo
Source text: Specifically, in these particular fragments, the three most N-terminal and the two most C-terminal amino acids appear to play a role in the anti-inflammatory properties of the peptides as replacement of them appeared to reduce the capacity of the peptides to reduce TNF-alpha levels in a LPS challenged mouse model of sepsis (see, e.g., PCT/US13/20498; which is incorporated by reference herein in its entirety). Accordingly, in some aspects of all embodiments of the invention the peptides are selected from SP40, SP43, SP46, and SP49 the peptide sequences of which are set forth in Table B.
Table C below presents additional exemplary peptides that were used to reduce TNF-alpha levels in mice subjected to an LPS challenge. Also the peptides with capacity to reduce TNF-alpha levels as described in PCT/US13/20498; which is incorporated by reference herein in its entirety, are contemplated for the compositions, pharmaceutical compositions and methods of use and treatment of inflammatory conditions in the present invention.

[4] = rat, in vivo, SP16, IV (5 mg/kg), normal rats

CC[C@H](C)[C@H](NC(=O)[C@H](CCSC)NC(=O)[C@H](CC(C)C)NC(=O)[C@H](Cc1ccccc1)NC(=O)[C@@H](NC(=O)[C@H](Cc1ccccc1)NC(=O)[C@@H]1CCCN1C(=O)[C@H](CCCCN)NC(=O)[C@H](CC(N)=O)NC(=O)[C@H](Cc1ccccc1)NC(=O)[C@H](CCCCN)NC(=O)[C@@H](N)C(C)C)C(C)C)C(=O)N[C@@H](CCC(=O)O)C(=O)N[C@@H](CCC(N)=O)C(=O)N[C@@H](CC(N)=O)C(=O)N[C@H](C(=O)N[C@@H](CCCCN)C(=O)O)[C@@H](C)O [SP16]
Last Time point ([1]; SP16, IV (5 mg/kg), normal rats): 8.0
Cmax ([1]; rat, in vivo, iv, 5 mg/kg intravenously, three normal rats): 2500 ng/mL
half-life ([1]; rat, in vivo, iv, 5 mg/kg intravenously, three normal rats, read-out: T1/2 (half-life) (converted)): 1.9 h
C0 [1, 4]: 2500 ng/mL
MRT inf [1, 4]: 1.1 h
AUC ([1]; rat, in vivo, SP16, IV (5 mg/kg), normal rats, read-out: AUC to Last): 900 ng·h/mL
clearance ([1]; rat, in vivo, SP16, IV (5 mg/kg), normal rats, read-out: Total CL (converted)): 2.33 mL/min and 9.7 mL/min/kg
Vd ([1]; rat, in vivo, SP16, IV (5 mg/kg), normal rats, read-out: Vss): 0.149 L
Vd ([1]; rat, plasma, SP16, IV (5 mg/kg), normal rats, read-out: V): 0.374 L
IC50 (hERG): > 25 µM
comment: concentration-dependent inhibition of hERG observed or not (hERG; 0.008-25 μM): No concentration-dependent
activity at 0.008 µM (hERG; hERG, 0.008 μM): 89%
activity at 0.04 µM (hERG; hERG, 0.04 μM): 95%
activity at 0.2 µM (hERG; hERG, 0.2 μM): 95%
activity at 1 µM (hERG; hERG, 1 μM): 78%
activity at 5 µM (hERG; hERG, 5 μM): 88%
activity at 25 µM (hERG; hERG, 25 μM): 89%
inhibition of hERG (in words) (hERG; up to 25 μM): does not impact hERG activity; also recorded: does not inhibit hERG
effect on the human receptor panel (in words) (111 human receptors): not able to identify any hits; also recorded: no effect on 111 human receptors
heart contractility (healthy mouse): does not affect heart contractility

A A A N K P F V F L M I E Q N T K (AAANKPFVFLMIEQNTK; listed as Homo sapiens) [SP37]
binding to LRP1 (statement without method) (recombinant LRP1 protein): bind LRP1

AAT: plasma derived alpha-1 antitrypsin (AAT) (Aralast N P, Baxter); circulating serum protein, parent of SP16
protective effects (infarct size, LV systolic function) after LRP1 blocking antibody (LRP1): eliminates the cardioprotective effects; also recorded: eliminated the protective effects
infarct size ([2]; vs albumin, FIG. 3): significantly smaller infarct size; also recorded: reduces infarct size
cardiac healing and remodeling [2]: more favorable cardiac healing and remodeling
safety and efficacy in blocking the inflammatory reaction after AMI [3]: preliminary safety and efficacy

V K F A A A F V F L M I E Q N T K (VKFAAAFVFLMIEQNTK; listed as Homo sapiens) [SP40]
binding to LRP1 (statement without method) (recombinant LRP1 protein): bind LRP1
anti-inflammatory effect (TNF-alpha): particularly good anti-inflammatory effect

V K F N K P A A A L M I E Q N T K (VKFNKPAAALMIEQNTK; listed as Homo sapiens) [SP43]
anti-inflammatory effect (TNF-alpha): particularly good anti-inflammatory effect

V K F N K P F V F A A A E Q N T K (VKFNKPFVFAAAEQNTK; listed as Homo sapiens) [SP46]
anti-inflammatory effect (TNF-alpha): particularly good anti-inflammatory effect

V K F N K P F V F L M I A A A T K (VKFNKPFVFLMIAAATK; listed as Homo sapiens) [SP49]
anti-inflammatory effect (TNF-alpha): particularly good anti-inflammatory effect

V K F N K P F V F L M I E Q A A A (VKFNKPFVFLMIEQAAA; listed as Homo sapiens) [SP51]
binding to LRP1 (statement without method) (recombinant LRP1 protein): bind LRP1

Source: US11020462B2, “Methods for treatment of diseases” (SERPIN PHARMA, LLC, priority 2015, dated 2021)
